Measurements published in patent publication US20220340597A1, “HEXAHYDRO-1H-PYRAZINO[1,2-A]PYRAZINE COMPOUNDS FOR THE TREATMENT OF AUTOIMMUNE DISEASE” (Hoffmann-La Roche Inc., priority 2019, published 2022).

Columns and labels:
human TLR9 = molecular target: T1, human TLR9 (Homo sapiens, UniProt Q9NR96); test: HEK293-Blue-hTLR-9 cells assay; type: cell-based; details: HEK293-Blue-hTLR9 cells, ODN2006 stimulation, 20 hrs, SEAP reporter; read-out: HEK/hTLR9 IC50
T1 construct: host or cells: HEK293 (HEK-Blue hTLR9)
T1 sequence (Q9NR96 26-1032): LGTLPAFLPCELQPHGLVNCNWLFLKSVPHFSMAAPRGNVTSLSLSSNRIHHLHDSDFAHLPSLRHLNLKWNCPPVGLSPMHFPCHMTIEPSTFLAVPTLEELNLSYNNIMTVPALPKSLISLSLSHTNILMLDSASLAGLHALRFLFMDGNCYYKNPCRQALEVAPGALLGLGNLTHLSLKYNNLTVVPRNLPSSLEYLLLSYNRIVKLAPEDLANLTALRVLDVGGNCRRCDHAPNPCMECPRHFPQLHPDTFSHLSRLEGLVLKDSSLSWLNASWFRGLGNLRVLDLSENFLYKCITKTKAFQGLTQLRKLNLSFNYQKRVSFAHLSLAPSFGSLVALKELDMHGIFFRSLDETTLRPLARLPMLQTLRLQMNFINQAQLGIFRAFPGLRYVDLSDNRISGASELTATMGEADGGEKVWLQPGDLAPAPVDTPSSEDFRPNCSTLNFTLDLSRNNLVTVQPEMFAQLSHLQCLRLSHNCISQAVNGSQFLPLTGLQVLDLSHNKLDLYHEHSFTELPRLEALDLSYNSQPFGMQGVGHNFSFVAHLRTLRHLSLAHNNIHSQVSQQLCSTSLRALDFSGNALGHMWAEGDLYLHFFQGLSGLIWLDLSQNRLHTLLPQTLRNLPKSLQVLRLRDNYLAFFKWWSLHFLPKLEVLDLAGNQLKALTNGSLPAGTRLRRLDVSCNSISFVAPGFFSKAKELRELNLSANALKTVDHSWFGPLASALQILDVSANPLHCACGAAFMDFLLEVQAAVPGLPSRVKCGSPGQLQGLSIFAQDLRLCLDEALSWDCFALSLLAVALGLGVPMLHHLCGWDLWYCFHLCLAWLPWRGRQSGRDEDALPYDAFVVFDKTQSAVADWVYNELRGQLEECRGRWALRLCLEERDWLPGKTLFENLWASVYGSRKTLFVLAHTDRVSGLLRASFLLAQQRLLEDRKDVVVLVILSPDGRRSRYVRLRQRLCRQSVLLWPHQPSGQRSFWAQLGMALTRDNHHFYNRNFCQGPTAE

human TLR8 = molecular target: T2, human TLR8 (Homo sapiens, UniProt Q9NR97); test: HEK293-Blue-hTLR-8 cells assay
T2 sequence (Q9NR97 27-1041): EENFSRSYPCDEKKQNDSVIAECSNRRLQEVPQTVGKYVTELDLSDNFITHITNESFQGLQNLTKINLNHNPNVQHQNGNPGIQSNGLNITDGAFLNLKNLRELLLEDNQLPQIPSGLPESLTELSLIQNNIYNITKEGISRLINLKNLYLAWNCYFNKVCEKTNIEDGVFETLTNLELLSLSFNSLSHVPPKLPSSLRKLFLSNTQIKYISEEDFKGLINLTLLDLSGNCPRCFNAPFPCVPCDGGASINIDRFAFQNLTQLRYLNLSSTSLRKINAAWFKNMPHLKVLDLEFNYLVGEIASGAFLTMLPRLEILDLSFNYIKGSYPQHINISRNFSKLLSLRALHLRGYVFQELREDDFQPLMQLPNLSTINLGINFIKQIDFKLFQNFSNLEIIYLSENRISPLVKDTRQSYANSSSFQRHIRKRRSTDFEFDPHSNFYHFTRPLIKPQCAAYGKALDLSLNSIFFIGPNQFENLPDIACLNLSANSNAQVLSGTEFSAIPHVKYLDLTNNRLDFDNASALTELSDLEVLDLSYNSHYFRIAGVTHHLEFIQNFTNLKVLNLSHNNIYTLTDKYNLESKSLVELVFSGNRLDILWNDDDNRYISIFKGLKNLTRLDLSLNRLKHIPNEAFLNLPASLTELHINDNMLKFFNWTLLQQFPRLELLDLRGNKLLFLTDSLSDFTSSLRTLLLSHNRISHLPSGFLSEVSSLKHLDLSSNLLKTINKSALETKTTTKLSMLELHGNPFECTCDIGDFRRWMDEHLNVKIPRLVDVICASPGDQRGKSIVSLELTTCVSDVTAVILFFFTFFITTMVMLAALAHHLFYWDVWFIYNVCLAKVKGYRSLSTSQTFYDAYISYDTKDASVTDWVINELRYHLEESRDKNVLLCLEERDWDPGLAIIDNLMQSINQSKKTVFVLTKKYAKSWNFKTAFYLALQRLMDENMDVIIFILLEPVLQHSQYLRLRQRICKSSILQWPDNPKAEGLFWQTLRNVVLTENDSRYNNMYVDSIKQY

Compound	IC50 (human TLR9)	IC50 (human TLR8)
[2H]c1ccc2c(N3C[C@@H]4CN(c5ncc(N6CC[C@@](C)(N)C6)cc5C)CCN4[C@H](C)C3)ccc(C#N)c2n1 [Example 97, 5-[(4R,9aR)-8-[5-[(3R)-3-amino-3-methyl-pyrrolidin-1-yl]-3-methyl-2-pyridyl]-4-methyl-3,4,6,7,9,9a-hexahydro-1H-pyrazino[1,2-a]pyrazin-2-yl]-2-deuterio-quinoline-8-carbonitrile]	0.14 µM	0.004 µM
[2H]c1ccc2c(N3C[C@@H]4CN(Cc5ccc(N6C[C@H]7NCCO[C@@H]7C6)nc5C)CCN4[C@H](C)C3)ccc(C#N)c2n1 [Example 98, 5-[(4R,9aS)-8-[[6-[(4aR,7aR)-3,4,4a,5,7,7a-hexahydro-2H-pyrrolo[3,4-b][1,4]oxazin-6-yl]-2-methyl-3-pyridyl]methyl]-4-methyl-3,4,6,7,9,9a-hexahydro-1H-pyrazino[1,2-a]pyrazin-2-yl]-2-deuterio-quinoline-8-carbonitrile]	0.058 µM	0.01 µM
[2H]c1ccc2c(N3C[C@@H]4CN(Cc5ccc(N6CC7CCC(C6)N7)nc5C)CCN4[C@H](C)C3)ccc(C#N)c2n1 [Example 91, 5-[(4R,9aS)-8-[[6-(3,8-diazabicyclo[3.2.1]octan-3-yl)-2-methyl-3-pyridyl]methyl]-4-methyl-3,4,6,7,9,9a-hexahydro-1H-pyrazino[1,2-a]pyrazin-2-yl]-2-deuterio-quinoline-8-carbonitrile]	0.045 µM	0.02 µM
C[C@@H]1CN(c2ccc(C#N)c3ncccc23)C[C@@H]2CN(Cc3ccnc(N4CCNCC4)c3)CCN21 (relative stereo) [Example 3]	0.11 µM	0.012 µM
Cc1cc(N2CCNCC2)cnc1N1CCN2[C@@H](C1)CN(c1cc(=O)n(C)c3ncccc13)C[C@H]2C [Example 93, 4-[(4R,9aR)-4-methyl-8-(3-methyl-5-piperazin-1-yl-2-pyridyl)-3,4,6,7,9,9a-hexahydro-1H-pyrazino[1,2-a]pyrazin-2-yl]-1-methyl-1,8-naphthyridin-2-one]	0.186 µM	0.061 µM
[2H]c1ccc2c(N3C[C@@H]4CN(c5ncc(N6C[C@@H](N)[C@@H](OC)C6)cc5C)CCN4[C@H](C)C3)ccc(C#N)c2n1 [Example 96, 5-[(4R,9aR)-8-[5-[(3R,4S)-3-amino-4-methoxy-pyrrolidin-1-yl]-3-methyl-2-pyridyl]-4-methyl-3,4,6,7,9,9a-hexahydro-1H-pyrazino[1,2-a]pyrazin-2-yl]-2-deuterio-quinoline-8-carbonitrile]	0.189 µM	0.005 µM
Cc1nc(N2CCN[C@H](C)C2)ccc1CN1CCN2[C@@H](C1)CN(c1ccc(C#N)c3ncccc13)C[C@H]2C [Example 86, 5-[(4R,9aS)-4-methyl-8-[[2-methyl-6-[(3R)-3-methylpiperazin-1-yl]-3-pyridyl]methyl]-3,4,6,7,9,9a-hexahydro-1H-pyrazino[1,2-a]pyrazin-2-yl]quinoline-8-carbonitrile]	0.062 µM	0.012 µM
[2H]c1ccc2c(N3C[C@@H]4CN(c5ncc(N6C[C@@H]7C[C@H]6CN7)cc5C)CCN4[C@H](C)C3)ccc(C#N)c2n1 [Example 95, 5-[(4R,9aR)-8-[5-[(1S,4S)-2,5-diazabicyclo[2.2.1]heptan-2-yl]-3-methyl-2-pyridyl]-4-methyl-3,4,6,7,9,9a-hexahydro-1H-pyrazino[1,2-a]pyrazin-2-yl]-2-deuterio-quinoline-8-carbonitrile]	0.142 µM	0.006 µM
[2H]c1ccc2c(N3C[C@@H]4CN(c5ncc(N6C[C@@H](N)[C@H](OC)C6)cc5C)CCN4[C@H](C)C3)ccc(C#N)c2n1 [Example 99, 5-[(4R,9aR)-8-[5-[(3R,4R)-3-amino-4-methoxy-pyrrolidin-1-yl]-3-methyl-2-pyridyl]-4-methyl-3,4,6,7,9,9a-hexahydro-1H-pyrazino[1,2-a]pyrazin-2-yl]-2-deuterio-quinoline-8-carbonitrile]	0.155 µM	0.002 µM
[2H]c1ccc2c(N3C[C@@H]4CN(c5ncc(N6C[C@H]7NCCO[C@@H]7C6)cc5C)CCN4[C@H](C)C3)ccc(C#N)c2n1 [Example 100, 5-[(4R,9aR)-8-[5-[(4aR,7aR)-3,4,4a,5,7,7a-hexahydro-2H-pyrrolo[3,4-b][1,4]oxazin-6-yl]-3-methyl-2-pyridyl]-4-methyl-3,4,6,7,9,9a-hexahydro-1H-pyrazino[1,2-a]pyrazin-2-yl]-2-deuterio-quinoline-8-carbonitrile]	0.173 µM	0.003 µM

Further lines, results first:

IC50 (human TLR9)	IC50 (human TLR8)	Compound
< 0.032 µM	0.019 µM	[2H]c1ccc2c(N3C[C@@H]4CN(CCc5ccc(N6CC[C@@](C)(N)C6)nc5)CCN4[C@H](C)C3)ccc(C#N)c2n1 [Example 84, 5-[(4R,9aS)-8-[2-[6-[(3R)-3-amino-3-methyl-pyrrolidin-1-yl]-3-pyridyl]ethyl]-4-methyl-3,4,6,7,9,9a-hexahydro-1H-pyrazino[1,2-a]pyrazin-2-yl]-2-deuterio-quinoline-8-carbonitrile]
< 0.032 µM	0.005 µM	[2H]c1ccc2c(N3C[C@@H]4CN(Cc5ccc(N6CC[C@@](C)(N)C6)nc5C)CCN4[C@H](C)C3)ccc(C#N)c2n1 [Example 81, 5-[(4R,9aS)-8-[[6-[(3R)-3-amino-3-methyl-pyrrolidin-1-yl]-2-methyl-3-pyridyl]methyl]-4-methyl-3,4,6,7,9,9a-hexahydro-1H-pyrazino[1,2-a]pyrazin-2-yl]-2-deuterio-quinoline-8-carbonitrile]
0.047 µM	0.044 µM	[2H]c1ccc2c(N3C[C@@H]4CN(CCc5ccnc(N6C[C@@H](N)[C@@H](F)C6)c5)CCN4[C@H](C)C3)ccc(C#N)c2n1 [Example 89, 5-[(4R,9aS)-8-[2-[2-[(3R,4S)-3-amino-4-fluoro-pyrrolidin-1-yl]-4-pyridyl]ethyl]-4-methyl-3,4,6,7,9,9a-hexahydro-1H-pyrazino[1,2-a]pyrazin-2-yl]-2-deuterio-quinoline-8-carbonitrile]
0.034 µM	0.009 µM	[2H]c1ccc2c(N3C[C@@H]4CN(Cc5ccc(N6C[C@@H]7C[C@H]6CN7)nc5C)CCN4[C@H](C)C3)ccc(C#N)c2n1 [Example 92, 5-[(4R,9aS)-8-[[6-[(1S,4S)-2,5-diazabicyclo[2.2.1]heptan-2-yl]-2-methyl-3-pyridyl]methyl]-4-methyl-3,4,6,7,9,9a-hexahydro-1H-pyrazino[1,2-a]pyrazin-2-yl]-2-deuterio-quinoline-8-carbonitrile]
0.051 µM	0.007 µM	[2H]c1ccc2c(N3C[C@@H]4CN(Cc5ccc(N6CC7CNCC(C6)O7)nc5C)CCN4[C@H](C)C3)ccc(C#N)c2n1 [Example 83, 5-[(4R,9aS)-4-methyl-8-[[2-methyl-6-(9-oxa-3,7-diazabicyclo[3.3.1]nonan-3-yl)-3-pyridyl]methyl]-3,4,6,7,9,9a-hexahydro-1H-pyrazino[1,2-a]pyrazin-2-yl]-2-deuterio-quinoline-8-carbonitrile]
